Results reported in patent US20130345312A1, “TREATMENT OF MITOCHONDRIAL DISEASES WITH NAPHTHOQUINONES” (priority 2010, published 2013).

What was measured:
Assay type in all cases: cell-based
[1] = test system: FRDA fibroblasts (Coriell GM04078); assay: Rescue of BSO-stressed human dermal fibroblasts from Friedreich's ataxia patients (Calcein AM viability); conditions: FRDA fibroblasts stressed with 1 mM BSO, 48 h, Calcein AM fluorescence, read-out: protection against FRDA, EC50
Procedure: Test samples and solvent controls were tested for their ability to rescue FRDA fibroblasts stressed by addition of L-buthionine-(S,R)-sulfoximine (BSO), as described in Jauslin et al., Hum. Mol. Genet. 11(24):3055 (2002), Jauslin et al., FASEB J. 17:1972-4 (2003), and International Patent Application WO 2004/003565. […] This specific BSO-mediated cell death can be prevented by administration of antioxidants or molecules involved in the antioxidant pathway, such as alpha-tocopherol, selenium, or small molecule glutathione peroxidase mimetics. However, antioxidants differ in their potency, i.e. the concentration at which they are able to rescue BSO-stressed FRDA fibroblasts. MEM (a medium enriched in amino acids and vitamins, catalog no. 1-31F24-I) and Medium 199 (M199, catalog no. 1-21F22-I) with Earle's Balanced Salts, without phenol red, were purchased from Bioconcept. Fetal Calf Serum was obtained from PAA Laboratories. Basic fibroblast growth factor and epidermal growth factor were purchased from PeproTech. Penicillin-streptomycin-glutamine mix, L-buthionine (S,R)-sulfoximine, and insulin from bovine pancreas were purchased from Sigma. Calcein AM was purchased from Molecular Probes. Cell culture medium was made by combining 125 ml M199 EBS, 50 ml Fetal Calf Serum, 100 U/ml penicillin, 100 μg/ml streptomycin, 2 mM glutamine, 10 μg/ml insulin, 10 ng/ml EGF, and 10 ng/ml bFGF; MEM EBS was added to make the volume up to 500 ml. A 10 mM BSO solution was prepared by dissolving 444 mg BSO in 200 ml of medium with subsequent filter-sterilization. During the course of the experiments, this solution was stored at +4° C. The cells were obtained from the Coriell Cell Repositories (Camden, N.J.; repository number GM04078) and grown in 10 cm tissue culture plates. Every third day, they were split at a 1:3 ratio. The test samples were supplied in 1.5 ml glass vials. The compounds were diluted with DMSO, ethanol or PBS to result in a 5 mM stock solution. Once dissolved, they were stored at −20° C. Test samples were screened according to the following protocol: A culture with FRDA fibroblasts was started from a 1 ml vial with approximately 500,000 cells stored in liquid nitrogen. Cells were propagated in 10 cm cell culture dishes by splitting every third day in a ratio of 1:3 until nine plates were available. Once confluent, fibroblasts were harvested. For 54 micro titer plates (96 well-MTP) a total of 14.3 million cells (passage eight) were re-suspended in 480 ml medium, corresponding to 100 μL medium with 3,000 cells/well. The remaining cells were distributed in 10 cm cell culture plates (500,000 cells/plate) for propagation. The plates were incubated overnight at 37° C. in a atmosphere with 95% humidity and 5% CO2 to allow attachment of the cells to the culture plate. MTP medium (243 μL) was added to a well of the microtiter plate. The test compounds were unfrozen and 7.5 μL of a 5 mM stock solution was dissolved in the well containing 243 μL medium, resulting in a 150 μM master solution. Serial dilutions from the master solution were made. The period between the single dilution steps was kept as short as possible (generally less than 1 second). Plates were kept overnight in the cell culture incubator. The next day, 10 μL of a 10 mM BSO solution were added to the wells, resulting in a 1 mM final BSO concentration. Forty-eight hours later, three plates were examined under a phase-contrast microscope to verify that the cells in the 0% control (wells E1-H1) were clearly dead. The medium from all plates was discarded, and the remaining liquid was removed by gently tapping the plate inversed onto a paper towel. 100 μl of PBS containing 1.2 μM Calcein AM were then added to each well. The plates were incubated for 50-70 minutes at room temperature. After that time the PBS was discarded, the plate gently tapped on a paper towel and fluorescence (excitation/emission wavelengths of 485 nm and 525 nm, respectively) was read on a Gemini fluorescence reader. […]

[2] = test system: Huntington's cells (Coriell GM 04281); assay: Rescue of fibroblasts from Huntington's patients from oxidative stress (screen as in Example A); conditions: Fibroblast, human dermal fibroblasts from Huntington's patients, read-out: protection against Huntington's, EC50
Procedure: Compounds of the invention were tested using the screen as described in Example A, but substituting FRDA cells with Huntington's cells obtained from the Coriell Cell Repositories (Camden, N.J.; repository number GM 04281). The compounds were tested for their ability to rescue human dermal fibroblasts from Huntington's patients from oxidative stress.

[3] = test system: Leber's Hereditary Optic Neuropathy (LHON) cells (Coriell GM03858); assay: Rescue of fibroblasts from Leber's Hereditary Optic Neuropathy patients from oxidative stress (screen as in Example A); conditions: Fibroblast, human dermal fibroblasts from LHON patients, read-out: protection against LHON, EC50
Procedure: Compounds of the invention were screened as described in Example A, but substituting FRDA cells with Leber's Hereditary Optic Neuropathy (LHON) cells obtained from the Coriell Cell Repositories (Camden, N.J.; repository number GM03858). The compounds were tested for their ability to rescue human dermal fibroblasts from LHON patients from oxidative stress.

[4] = test system: cells obtained from CoQ10 deficient patients harboring a CoQ2 mutation; assay: Rescue of fibroblasts from CoQ10 deficient patients from oxidative stress (screen similar to Example A); conditions: Fibroblast, human dermal fibroblasts from CoQ10 deficient patients (CoQ2 mutation), read-out: protection against CoQ10 deficiency, EC50
Procedure: Compounds of the invention were tested using a screen similar to the one described in Example A, but substituting FRDA cells with cells obtained from CoQ10 deficient patients harboring a CoQ2 mutation. The compounds were tested for their ability to rescue human dermal fibroblasts from CoQ10 deficient patients from oxidative stress.

[5] = test system: Parkinson's disease (PD) cells (Coriell AG20439); assay: Rescue of fibroblasts from Parkinson's disease patients from oxidative stress (screen as in Example A); conditions: Fibroblast, human dermal fibroblasts from Parkinson's disease patients, read-out: protection against PD, EC50
Procedure: Compounds of the invention were screened as described in Example A, but substituting FRDA cells with Parkinson's disease (PD) cells obtained from the Coriell Cell Repositories (Camden, N.J.; repository number AG20439). The compounds were tested for their ability to rescue human dermal fibroblasts from Parkinson's disease patients from oxidative stress.

SMILES	EC50 [1] [nM]	EC50 [2] [nM]	EC50 [3] [nM]	EC50 [4] [nM]	EC50 [5] [nM]
COC1=CC(=O)c2ccccc2C1=O [2-methoxynaphthalene-1,4-dione]	< 100	< 150	< 150	< 100	–
COC1=C(OC)C(=O)c2ccccc2C1=O [2,3-dimethoxynaphthalene-1,4-dione]	< 100	< 150	< 150	< 100	–
CCCCCCC1=C(C)C(=O)c2ccccc2C1=O [2-hexyl-3-methylnaphthalene-1,4-dione]	< 100	< 150	< 150	< 100	< 200
CC1=C(C)C(=O)c2ccccc2C1=O [2,3-dimethylnaphthalene-1,4-dione]	< 100	< 150	< 150	< 100	< 200
CCCCC1=C(C)C(=O)c2ccccc2C1=O [2-butyl-3-methylnaphthalene-1,4-dione]	< 100	< 150	< 150	< 100	< 200
O=C1C=CC(=O)c2ccccc21 [naphthalene-1,4-dione]	< 100	< 150	< 150	–	< 200
